The text below walks through data of patent US12133714B2, “Line excitation array detection microscopy” (BOARD OF REGENTS, THE UNIVERSITY OF TEXAS SYSTEM, priority 2018, dated 2024).

Experiment [1] deals with polyQ40 strain C. elegans (polyglutamine mediated aggregation of YFP-labeled protein in body wall muscle cells). As to conditions: polyQ40 animals, earlier publication (ref. 37); cited from earlier work.
The test system is the same in experiment [2]. Briefly: LEAD flow cytometry imaging of polyQ aggregation model C. elegans treated with drug. It is filed as in vivo. The conditions noted are these: for number of fluorescent protein aggregates per animal (median ± standard deviation): polyQ40 animals treated at L1 stage, imaged at late L4 stage, untreated polyQ40 27±3. The source says:
The model simulates human Huntington's disease through CAG repeats in the huntingtin allele, with 35 or more repeats resulting in polyglutamine (polyQ) mediated aggregation, protein misfolding, and cellular toxicity^36. Specifically, the polyQ40 strain was imaged with 40 CAG repeats at the late L4 stage when the disease phenotype presents as aggregation of YFP-labeled protein in the body wall muscle cells. The aggregates are 1-5 μm in diameter and distributed in 3D along the length of the animal, and therefore requires relatively high resolution volumetric imaging. […] Populations of up to 300 animals were imaged. The animals moved at 0.89±0.31 m/s through the imaging channel, resulting in an imaging time of 1.07±0.26 ms per animal with the majority of the population imaged within 1 second (See FIGS. 10B, 10C). The maximum available laser power of 4 mW at the sample was sufficient to utilize the full dynamic range of our collection system. […] Despite the ultrafast scanning, C. elegans images show SNRs exceeding 500 for the center PMT elements and slightly lower SNR for the less responsive surrounding elements in accordance with the PMT specifications (see FIG. 9D). 27±3 (median±standard deviation) aggregates per animal for the polyQ40 strain were found, similar to previous findings for worms at the same stage^36. […] PolyQ40 animals were treated with either 25 or 50 μM dronedarone at the L1 stage, and were imaged at the late L4 stage (FIG. 16A). The drug reduced aggregation to 16±5 and 7±2 aggregates per animal for 25 μM and 50 μM, respectively, showing a dose response (FIG. 16B). The system's high-speed 3D imaging capability for drug screening is established by the short imaging time for the effectivity of dronedarone reaches a statistically significant level—animals treated with 25 and 50 μM dronedarone reach p=0.001 in under 0.25 s and 0.10 s, respectively (FIG. 16C). […]
(In general: A flow cytometer gives signals particle by particle.)

“Also recorded” adds a separate entry of the source.

As to `CCCCc1oc2ccc(NS(C)(=O)=O)cc2c1C(=O)c1ccc(OCCCN(CCCC)CCCC)cc1` [dronedarone], the “effect on formation of aggregates, previously observed (in words)” value in experiment [1] is given as “prevents the formation of aggregates in the polyQ40 animals”. Besides, the “number of fluorescent protein aggregates per animal (median ± standard deviation)” value in experiment [2] (25 μM) was 16±5 aggregates per animal; in experiment [2] (50 μM) it was 7±2 aggregates per animal. For the same compound, in experiment [2] (polyQ40 animals, 25 and 50 μM, LEAD imaging), the “effect on formation of protein aggregates (in words)” value was “prevents the formation of protein aggregates with a dose response; also recorded: can reduce aggregation with a dose response”.
